Patent US20220105170A1 (priority 2019, published 2022)
Where “and” joins values, the source holds several entries; their conditions need not be identical. Equal entries are not always repeated.

Tested on: peripheral blood lymphocytes collected from swine exposed to ASFV
Format: cell-based

| Substance | Number of Spots |
| --- | --- |
| 56 (MRYTQIYKYPL) [compound 56] | 23 |
| 64 (KVNNSMPLI) [compound 64] | 32 |
| 66 (CTYGEGNGHY) [compound 66] | 62 |
| 69 (KVNKSMPLI) [compound 69] | 255 |
| 70 (KSMPLIVENSY) [compound 70] | 35 |
| 84 (KVLGLLLGY) [compound 84] | 16 |
| 85 (KSELSYWCTY) [compound 85] | 20 |
| 241 (MVYNFNTLY) [compound 241] | 16 |
| 275 (ATYNHRKILIY) [compound 275] | 21 |
| 278 (MRIEIFWEL) [compound 278] | 15 |
| 279 (KTDLLNNEF) [compound 279] | 17 |
| 280 (SLSTLLLKY) [compound 280] | 12 |
| 283 (YTHLNTWRL) [compound 283] | 18 |
| 285 (QAMLSSIQYY) [compound 285] | 14 |
| 297 (LRHNFTKAIHY) [compound 297] | 16 |
| 309 (FTKAIHYFYKR) [compound 309] | 12 |
| 321 (KRHKNHLY) [compound 321] | 14 |
| 328 (KNHLYWRV) [compound 328] | 13 |
| 329 (ASLDYGMNL) [compound 329] | 12 |
| 335 (YLHETLFEL) [compound 335] | 12 |
| 357 (YSYCFIKHF) [compound 357] | 13 |
| 369 (KHTLQWLGLY) [compound 369] | 16 |
| 386 (RTENYNLVCEY) [compound 386] | 110 |

| Substance | Number of Spots |
| --- | --- |
| 439 (ISPEKFIKI) [compound 439] | 16 |
| 447 (NIIHTIYQSY) [compound 447] | 331 |
| 449 (HTIYQSYSL) [compound 449] | 19 |
| 458 (IVSEYINYLF) [compound 458] | 16 |
| 467 (QAYALEYAM) [compound 467] | 17 |
| 469 (HVVQRLGLY) [compound 469] | 14 |
| 478 (STYTEIVKY) [compound 478] | 33 and 19 |
| 523 (MGFSKPFMR) [compound 523] | 12 |
| 534 (RYFTFKFAAHL) [compound 534] | 12 |
| 557 (LIEFLTGFF) [compound 557] | 16 |
| 565 (SKVMDMICLDY) [compound 565] | 17 |
| 585 (VVDDVPSIDY) [compound 585] | 12 |
| 607 (NINCFNYCI) [compound 607] | 12 |
| 608 (INCFNYCILY) [compound 608] | 13 |
| 625 (SVFMWICIY) [compound 625] | 15 |
| 633 (ILEGVLGYF) [compound 633] | 14 |
| 635 (IRGRSLNMLSL) [compound 635] | 12 |
| 641 (GRSLNMLSLI) [compound 641] | 16 |
| 647 (GADPTQKDY) [compound 647] | 14 |
| 653 (WAVFTGNMEL) [compound 653] | 16 |
| 703 (STVITTAYNF) [compound 703] | 13 |
| 724 (HSDMYSVIFNI) [compound 724] | 15 |
| 725 (SDMYSVIFNI) [compound 725] | 15 |

| Substance | Number of Spots |
| --- | --- |
| 726 (DMYSVIFNIKY) [compound 726] | 14 |
| 743 (SKFCNHMFF) [compound 743] | 16 |
| 744 (SKFCNHMFFR) [compound 744] | 18 |
| 756 (FTDNLCFMM) [compound 756] | 19 |
| 757 (CFMMQCKSIY) [compound 757] | 16 |
| 769 (RLNAPNLKY) [compound 769] | 13 |
| 784 (KSKQASISSI) [compound 784] | 12 |
| 827 (NNVSYYWGL) [compound 827] | 13 |
| 835 (AMFFTRSEW) [compound 835] | 26 |
| 836 (RSEWASSNTF) [compound 836] | 31 |
| 839 (ASSSMHSGM) [compound 839] | 16 |
| 842 (SSMHSGMLY) [compound 842] | 13 and 23 |
| 847 (YINFRLKTFY) [compound 847] | 21 |
| 849 (FLKKNIYLY) [compound 849] | 13 |
| 857 (AVNSTGLIGY) [compound 857] | 17 |
| 860 (KARLCGLSY) [compound 860] | 14 and 19 |
| 865 (RRVHASYPGY) [compound 865] | 15 |
| 869 (GLAALVSPY) [compound 869] | 13 |
| 872 (RVDMNRFFQF) [compound 872] | 15 and 18 |
| 880 (SSIVFQHEM) [compound 880] | 66 |
| 884 (ISAINHFNY) [compound 884] | 19 |
| 888 (TMMHYPTFNW) [compound 888] | 12 |
| 889 (MMHYPTFNW) [compound 889] | 16 |

| Substance | Number of Spots |
| --- | --- |
| 896 (SGLQSFYLY) [compound 896] | 18 and 26 |
| 906 (WVGYNNVCYY) [compound 906] | 12 |
| 908 (VGYNNVCYY) [compound 908] | 16 |
| 921 (SVLLRDSGYY) [compound 921] | 14 |
| 923 (VLLRDSGYY) [compound 923] | 14 and 16 |
| 925 (KKQKHVSLL) [compound 925] | 14 |
| 926 (KQKHVSLLY) [compound 926] | 16 |
| 931 (SIDYWVSFNK) [compound 931] | 12 |
| 954 (NNFTATCII) [compound 954] | 15 |
| 960 (ETTLINCTYL) [compound 960] | 13 |
| 962 (TTLINCTY) [compound 962] | 12 |
| 963 (TLINCTYLTL) [compound 963] | 19 |
| 971 (LTLSSNYFY) [compound 971] | 12 |
| 977 (LSSNYFYTF) [compound 977] | 18 |
| 1001 (FKLYYIPLSI) [compound 1001] | 21 |
| 1006 (KRKKHVEEI) [compound 1006] | 13 |
| 1019 (TQPLNPFPL) [compound 1019] | 21 |
| 1020 (QTNCQLYFF) [compound 1020] | 18 |
| 1024 (SQKLVQLFY) [compound 1024] | 20 |
| 1033 (SVSPVFTSGY) [compound 1033] | 16 |
| 1049 (SLEFNTFYAF) [compound 1049] | 15 |
| 1065 (KTRGTRLFF) [compound 1065] | 36 |
| 1080 (FRDHFIAL) [compound 1080] | 16 |

| Substance | Number of Spots |
| --- | --- |
| 1090 (ALFPQYISYY) [compound 1090] | 106 |
| 1091 (LFPQYISYY) [compound 1091] | 17 |
| 1106 (CSSCMVRTY) [compound 1106] | 130 |
| 1107 (RTIPVAWDRF) [compound 1107] | 18 |
| 1111 (RTDFVWVADL) [compound 1111] | 13 |
| 1120 (SLPDVSTLPY) [compound 1120] | 13 |
| 1127 (RALKMYEDYY) [compound 1127] | 12 |
| 1129 (IMDDLVEEY) [compound 1129] | 14 |
| 1139 (ALANTSANY) [compound 1139] | 12 |
| 1141 (ILAEYVYSY) [compound 1141] | 18 |
| 1150 (KSQDTLHRF) [compound 1150] | 12 |
| 1151 (NLSEVVTAY) [compound 1151] | 16 |
| 1159 (MAEIRFLSM) [compound 1159] | 12 |
| 1172 (RCQHHAFSY) [compound 1172] | 12 |
| 1184 (LSDLRNFSF) [compound 1184] | 16 |
| 1187 (FSEHTKFFSY) [compound 1187] | 15 and 16 |
| 1188 (VSNILHSVF) [compound 1188] | 13 |
| 1196 (KEMQDYSLTF) [compound 1196] | 17 |
| 1204 (MQDYSLTF) [compound 1204] | 17 |
| 1205 (QDYSLTFLLK) [compound 1205] | 17 |
| 1207 (DYSLTFLLKK) [compound 1207] | 17 |
